Experimental data reported in US10426751B2, “Allosteric activators for treatment of phenylketonuria” (MCMASTER UNIVERSITY, priority 2015, dated 2019).
Positions count from the first letter of the chain named. “Also recorded” adds a separate entry of the source.

Columns and labels:
Plasmodium falciparum = conditions: read-out: IC50 (competitive inhibitor); cited from earlier work
WT-PAH [1] = target: T1, WT-PAH (Homo sapiens, UniProt P00439); test: Chaperone (refolding) assay: PAH activity after dilution from 6.0 M to 0.5 M GndCl; format: biochemical; conditions: for chaperone activity upon refolding (in words): ligand 20 μM
T1 construct: made in house; the paragraph itself says 'eukaryotic cell cultures' (pMAL vector, Martinez laboratory, University of Bergen)
T1 sequence (P00439 1-452): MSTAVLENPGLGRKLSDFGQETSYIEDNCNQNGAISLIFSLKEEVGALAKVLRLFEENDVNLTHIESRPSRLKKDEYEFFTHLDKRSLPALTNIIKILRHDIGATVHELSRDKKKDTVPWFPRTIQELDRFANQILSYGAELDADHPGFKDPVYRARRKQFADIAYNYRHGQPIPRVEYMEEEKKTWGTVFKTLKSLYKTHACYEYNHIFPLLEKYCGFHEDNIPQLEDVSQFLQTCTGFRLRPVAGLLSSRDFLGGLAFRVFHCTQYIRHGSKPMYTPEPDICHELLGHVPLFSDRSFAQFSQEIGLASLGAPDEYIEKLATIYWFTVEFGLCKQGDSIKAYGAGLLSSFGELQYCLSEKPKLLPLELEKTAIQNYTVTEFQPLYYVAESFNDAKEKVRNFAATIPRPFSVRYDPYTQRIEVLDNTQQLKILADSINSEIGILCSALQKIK
Protocol: (§1) For instance, a recovery of 50% of residual enzyme activity was achieved without ligand when PAH was incubated in 8.0 M urea after its dilution to 0.5 M urea to trigger protein refolding. In order to further reduce enzyme reversibility, the recovery of PAH activity was subsequently assessed when it was incubated using 6.0 M GndCl for 10 min and subsequently diluted to 0.5 M GndCl in the presence or absence of screen-positive ligands (20 μM) in enzyme reaction buffer with PAH activity measurements performed by CE as described previously. […] Two lead compounds and several analogs of SA were subsequently tested using two different mutants of PAH (I65T and R261Q) without chemical denaturants after the two-tiered screening.

beta-amyloid peptide = conditions: cited from earlier work
WT-PAH [2] = target: T1, WT-PAH; test: Primary screen (READ): ligand-induced stabilization of PAH activity in 8 M urea, Tyr formation by CE-UV; format: biochemical; conditions: ligand 20 μM; for stabilization / enhancement effect on PAH activity (in words): denaturing conditions
Protocol: (§2) Tetrameric human phenylalanine hydroxylase (PAH) enzyme kinetic assays were performed off-line under standardized conditions prior to quantification of Tyr formation by CE with UV detection. Enzyme assays were performed by first mixing together Phe (1 mM), catalase (100 nM) and PAH (0.25 μM/subunit) in a reaction buffer (20 mM HEPES and 200 mM NaCl, pH 7.0) that were equilibrated at 25° C. for 4 min. Then, ferrous (Fe^2+) ammonium sulfate (100 μM) was added to the solution for 1 min and the reaction was subsequently initiated by addition of BH4 ([…]) with DTT (5 mM) using a total volume of 100 μL. The reaction mixture was then vortexed for 60 s followed by sonication for 2 min prior to centrifugation for 10 s at 4 g and storage in a refrigerator (+4° C.). An aliquot (20 μL) was withdrawn from the quenched enzyme reaction and placed in a micro vial containing Me-Tyr as IS (100 μM) prior to CE analysis. The stability of the quenched enzyme reaction was confirmed by intermittent analysis of PAH activity over 6 h at room temperature, and no significant changes in the Tyr/IS or Phe/Tyr response ratio were measured. Enzymatic reactions were performed for both WT-PAH and two PAH mutants by pre-equilibrating each ligand for 10 min prior to addition of ferrous ion and BH4/DDT as described in enzyme reaction protocol in order to assess for ligand-induced PAH inhibition or activation.
Unlike thermal stability assays that can induce protein aggregation, chemical denaturants are more suitable as perturbants to promote unfolding and enzyme inactivation while solubilizing multimeric proteins. In this context, restoration of enzyme activity upon denaturation (READ) was first introduced to characterize PCs that stabilize yet enhance the activity of a lysosomal enzyme, β-glucocerebrosidase (GCase). Herein, READ was modified, further optimized and validated for primary screening of PCs for the cytosolic enzyme (PAH) using a chemical library containing structurally unique compounds with drug-like activity. For instance, the primary screen was used to measure ligand-induced stabilization of PAH by extrinsic small molecules that impart greater resistance to urea unfolding as compared to ligand-free apo-enzyme conditions. PAH activity was first examined as a function of urea concentration (0 to 8 M) and pre-equilibration time (10 min to 2 hr) in order to determine optimum conditions where residual enzyme activity was largely attenuated below 10% due to protein unfolding. Protein unfolding was performed in triplicate offline with the enzyme reaction buffer (20 mM HEPES and 200 mM NaCl, pH 7.0) using tetrameric human PAH (1 μM and/or 0.1 μM) or mutant PAH (1 μM and/or 0.1 μM) incubated 10 min in 0 M or 8 M urea in the presence or absence of ligand (20 μM). Dose-response studies (0, 2.0 and 20 μM) were subsequently performed in triplicate on screen-positive compounds using re-synthesized ligands in order to further validate initial screen results. In all cases, quenched enzyme reactions were processed as described previously prior to CE analysis. PAH activity measurements based on Tyr formation at 8M urea with the presence or absence of PC were normalized to 0 M urea for each aliquot enzyme reaction to minimize long-term variation, which also enables direct comparison of the ligand-induced stabilization activity under denaturing conditions (8M urea) while confirming inhibition and activation effects for ligands under native conditions (0 M urea).

R261Q PAH mutant = target: T2, R261Q PAH mutant (Homo sapiens, UniProt P00439, R261Q); test: PKU-mutant activity enhancement without chemical denaturants, CE-UV; format: biochemical; conditions: ligand 20 μM, no denaturant
T2 construct: made in house; the paragraph itself says 'eukaryotic cell cultures' (pMAL vector)
T2 sequence (P00439 1-452 R261Q): T1 sequence (P00439 1-452) with R261Q
Protocol: Expression of recombinant human WT-PAH and two PAH mutants ([…]) as fusion protein with maltose-binding protein in […] using pMAL expression vector was performed by the Martinez laboratory at the University of Bergen as described in Svebak et al., Biochem. J., 1995, 306, 589-597. Briefly, purification of the fusion proteins expressed in the pMAL vector system was performed using affinity chromatography followed by size-exclusion chromatography to remove low molecular weight components. Subsequently, the fusion proteins were cleaved by the restriction protease factor Xa and then phosphorylated by cyclic adenosine monophosphate (cAMP)-dependent protein kinase. The two clinically relevant PAH mutants, I65T and R261Q comprise single-point mutations in the regulatory and catalytic domain, respectively which are associated with highly variable phenotypes ranging from mild to classical PKU. For instance, patients with R261Q genotypes are reported to have inconsistent responses to BH4 therapy. In this work, I65T and R261Q PAH mutants were measured to have residual catalytic activities of (35±1)% and (5±0.5)% relative to WT PAH under standardized conditions (i.e., enzyme concentrations, assay buffer etc.), respectively. Stock solutions of WT-PAH and PAH mutants were prepared in enzyme reaction buffer (20 mM HEPES pH 7.0, 200 mM NaCl), and divided into separate 10 μL aliquots in 0.5 mL sterilized centrifuge tubes prior to storage at −80° C. Note that all enzyme assays were performed on aliquots of frozen enzymes thawed slowly in the fridge prior to daily use.
as §2, §1

WT-PAH [3] = target: T1, WT-PAH; test: PAH enzyme activity under native conditions (0 M urea), ligand-induced inhibition or activation; format: biochemical; conditions: ligand 20 μM
Protocol: as §2, with “An aliquot (20 μL) was withdrawn from the quenched enzyme reaction and placed in a micro vial containing Me-Tyr as IS (100 μM) prior to CE analysis.” left out, “Enzymatic reactions were performed for both WT-PAH and two PAH mutants by pre-equilibrating each ligand for 10 min prior to addition of ferrous ion and BH4/DDT as described in enzyme reaction protocol in order to assess for ligand-induced PAH inhibition or activation.” left out
Unlike thermal stability assays that can induce protein aggregation, chemical denaturants are more suitable as perturbants to promote unfolding and enzyme inactivation while solubilizing multimeric proteins. In this context, restoration of enzyme activity upon denaturation (READ) was first introduced to characterize PCs that stabilize yet enhance the activity of a lysosomal enzyme, β-glucocerebrosidase (GCase). […]

chaperone activity upon refolding (in words) (WT-PAH [1])	stabilization / enhancement effect on PAH activity (in words) (WT-PAH [2])	Structure (SMILES)	also measured
abolishes the chaperone activity		O=C(O)C1=CC(=O)[C@@H](O)[C@H](O)C1 [DSA, 3-dehydroshikimic acid]	
abolishes the chaperone activity		CCOC(=O)C1=C[C@@H](O)[C@@H](O)[C@H](O)C1 [ESA, ethoxyshikimate]	
significantly restored		O=C(O)C1=C[C@@H](O)[C@@H](O)[C@H](O)C1 [SA, (3R,4S,5R)-3,4,5-trihydroxycyclohex-1-ene-1-carboxylic acid]	activity enhancement of R261Q PAH mutant (R261Q PAH mutant): 3-5 fold; activity enhancement of R261Q PAH mutant (R261Q PAH mutant; listed as HCH): 5 fold; PAH residual activity (% of WT-PAH) (WT-PAH [2]; 8 M urea, ligand-free enzyme (7±0.5) %): 16%; inhibition or activation of WT-PAH under native conditions (in words) (WT-PAH [3]): weak activation effects; also recorded: lack of SA inhibitory effects; residual activity of WT-PAH after refolding (WT-PAH [1]; without ligand (7±0.5) %): ~38±2%
	no enhancement effect	COc1ccc([C@@H]2Sc3ccccc3N(CCN(C)C)C(=O)[C@@H]2OC(C)=O)cc1 [diltiazem]	
	no enhancement effect	OCCN1CCN(CCCN2c3ccccc3Sc3ccc(C(F)(F)F)cc32)CC1 [fluphenazine]	

More lines, now with the values behind:

Structure (SMILES)	chaperone activity upon refolding (in words) (WT-PAH [1])	stabilization / enhancement effect on PAH activity (in words) (WT-PAH [2])	also measured
O=C(O)C1=CC(O)C(O)C(O)C1F (stereo not drawn) [6-fluoro-shikimate]			IC50 (Plasmodium falciparum): 15 µM
O=C(O)c1cc(O)c(O)c(O)c1 [GA, gallic acid]	destabilizes and reduces the activity of WT-PAH upon refolding		oligomerization of beta-amyloid peptide (in words) (beta-amyloid peptide): inhibits oligomerization of beta-amyloid peptide
O=C(O)C1(O)C[C@@H](O)C(O)[C@H](O)C1 (stereo partly drawn) [QA, D-quinic acid]	significantly restored; also recorded: chaperone activity	exhibits PAH stabilization	
Nc1c(Br)cc(Br)cc1CN[C@H]1CC[C@H](O)CC1 [ambroxol]		no enhancement effect	
OC[C@H]1CNC[C@@H](O)[C@@H]1O [isofagomine]		no enhancement effect	
O[C@H]1[C@H](O)[C@@H](O)[C@H](O)[C@@H](O)[C@H]1O [myo-inositol]		no significant activity	
